# Measurements from publication PMC4795541, “A Rapid and Quantitative Flow Cytometry Method for the Analysis of Membrane Disruptive Antimicrobial Activity” (PLoS ONE, 2016).
# Marks after values point to notes of the source that are not given here. Where a SMILES comes first, the peptide text is derived from it. Where no end group is shown, it is not given here. [ ]: non-standard residue; d: D form. Phe(ol) = N[C@H](CO)Cc1ccccc1; Dab = NCC[C@H](N)C(=O)O; Dap = NC[C@H](N)C(=O)O; Aib = CC(C)(N)C(=O)O
# Key:
# F. nucleatum ATCC 25586 = test: MDC, flow cytometry Syto9/PI membrane disruption assay; format: cell-based, Fusobacterium nucleatum; details: for MDC: F. nucleatum ATCC 25586, 90 min peptide/bacteria incubation, Syto9/PI flow cytometry, extrapolated to 100% PI+ cells, average of 3 assays ± SD; for Antimicrobial activity (MDC50): against F. nucleatum, maximum peptide concentration = 1000 µM
# Description: We reasoned that as AMPs disrupt the cytoplasmic membrane we should be able to monitor this disruption using membrane permeable/impermeable fluorescent intercalating DNA dyes that are used to determine the viability of a microbial culture. We initially synthesised melittin (peptide sequence shown in S1 Table) a well characterised, broad-spectrum and potent AMP to investigate whether viability dyes, Syto9 (membrane permeable) and propidium iodide (PI, membrane impermeable), could be used to determine AMP activity, against the melittin-susceptible bacterium Fusobacterium nucleatum. […] Staining cells with 0.1% v/v Syto 9 in 0.9% […] (3.34mM stock solution) and 0.1% v/v PI in saline (50μg/mL stock solution) provided optimal concentrations that gave consistent and distinct cell populations; a membrane intact (Syto9+/PI-) and two membrane disrupted populations (Syto9+/PI+ and Syto9-/PI+; S1 Fig). […] Following from this we then incubated F. nucleatum with variant melittin concentrations and determined the proportion of membrane intact (Syto9+/PI-) and membrane disrupted (PI+ i.e. Syto9+/PI+ and Syto9-/PI+) populations. […] Linear regression of the PI+ values for the peptide concentrations prior to full membrane disruption (% PI+ cells ≤ 99% and ≥ 1–5%) gave an R^2 value of >0.9 and from extrapolation the minimum peptide concentration that induced 100% membrane disruption (MDC) could be determined (Fig 1c, insert). […] Melittin and magainin II are known to have high and low activities against the Gram positive bacterium Streptococcus mutans, respectively. […] Although the standard procedure is a 90 minute incubation of bacteria and AMP, we investigated whether the incubation time could be shortened.
# For determination of MDC a 50 μL aliquot of the bacteria/AMP was mixed with 100 μL of 0.9% w/v saline containing 0.1% v/v of SYTO® 9 (3.34mM stock solution) and 0.1% v/v of PI (50μg/mL stock solution) and incubated for 10 minutes at room temperature in the dark. Following incubation the bacterial cell samples were analysed using a Cell Lab Quanta SC MPL flow cytometer (Beckman Coulter) equipped with a 100 W stabilized mercury arc lamp with wavelengths of 365, 404, and 435 nm, and a 488 nm diode laser. The fluorescence from SYTO® 9 was measured through a 525-nm band-pass filter (Fluorescent Channel 1, FL-1), and the red emission of PI was measured with a 670-nm long pass filter (Fluorescent Channel 3, FL-3). A minimum of 100,000 bacterial events were collected and the multi-parametric data analyzed using the Cell Lab Quanta SC software. NB for flow cytometers not fitted with an electrical volume detector for cell counting, the addition of microbeads to the samples can be used to determine cell numbers. MDC was calculated by plotting the percent PI+ cells for the each peptide concentration and fitting a linear curve to the data that is ≤ 99% PI+ cells and ≥ 1–5% PI+ cells (minimum of 4 data points). Inclusion of data points outside of these PI+ cell percentages will result in a positive or negative skewing of the MDC value. By solving the line equation (y = mx + C) for x (peptide concentration) when y = 1 (where 1 = 100% of PI+ cells) the MDC (x) can be determined i.e. MDC = x = (y − C)/m.
# [1] = test system: HEK-293 (ATCC CRL-1573) cells; test: Inhibition of cell proliferation assay (MTS); format: cell-based; details: for IC50: HEK-293 cells 5×10^3, EMEM + 10% FBS, 28 h, MTS, A490, linear regression, maximum peptide concentration = 1000 µM; for Therapeutic Index (proliferation): IC50/MDC50 (F. nucleatum), given as x : 1
# Procedure: After 28 h, 20 μL of 3-(4,5-dimethylthiazol-2-yl)-5-(3-carboxymethoxyphenyl)-2-(4-sulfophenyl)-2H-tetrazolium (MTS) solution (CellTiter 96 AQueous Non-Radioactive Cell Proliferation Assay kit, Promega) were added to each well and the plates were incubated for a further 1–2 h at 37°C, 5% CO2 incubator. Cell proliferation was determined by measuring absorbance at 490 nm using a microplate reader (PerkinElmer 1420 Multilabel Counter VICTOR3). Positive and negative controls for inhibition were taken as HEK-293 cells incubated with mytomycin C (5 μg/mL, Sigma Pty Ltd) and HEK-293 cells incubated in media alone, respectively. The percentage of inhibition was calculated using the following formula: % Inhibition = [(A490 test sample—A490 negative control) / (A490 positive control—A490 negative control)] × 100
# The percentage of inhibition was plotted against peptide concentration and linear regression analysis was used to determine the AMP concentration needed to inhibit 50% (IC50) of the HEK-293 cells.
Compound,MDC (F. nucleatum ATCC 25586),Antimicrobial activity (MDC50) (F. nucleatum ATCC 25586),IC50 [1],Therapeutic Index (proliferation) [1]
CC(=O)NC(C)(C)C(=O)N1CCC[C@H]1C(=O)NC(C)(C)C(=O)N[C@@H](C)C(=O)NC(C)(C)C(=O)N[C@@H](C)C(=O)N[C@@H](CCC(N)=O)C(=O)NC(C)(C)C(=O)N[C@H](C(=O)NC(C)(C)C(=O)NCC(=O)N[C@@H](CC(C)C)C(=O)NC(C)(C)C(=O)N1CCC[C@H]1C(=O)N[C@H](C(=O)NC(C)(C)C(=O)NC(C)(C)C(=O)N[C@@H](CCC(=O)O)C(=O)N[C@@H](CCC(N)=O)C(=O)N[C@H](CO)Cc1ccccc1)C(C)C)C(C)C [Alamethicin] (Ac-[Aib]P[Aib]A[Aib]AQ[Aib]V[Aib]GL[Aib]PV[Aib][Aib]EQ[Phe(ol)]; N-terminus assumed),21.1 ± 4.1 µM,,,
CC[C@H](C)[C@H](NC(=O)CN)C(=O)NCC(=O)N[C@@H](CCN)C(=O)N[C@@H](Cc1ccccc1)C(=O)N[C@@H](CC(C)C)C(=O)N[C@@H](Cc1c[nH]cn1)C(=O)N[C@@H](CO)C(=O)N[C@@H](C)C(=O)N[C@@H](CCN)C(=O)N[C@@H](CCN)C(=O)N[C@@H](Cc1ccccc1)C(=O)NCC(=O)N[C@@H](CCN)C(=O)N[C@@H](C)C(=O)N[C@@H](Cc1ccccc1)C(=O)N[C@H](C(=O)NCC(=O)N[C@@H](CCC(=O)O)C(=O)N[C@H](C(=O)N[C@@H](CCSC)C(=O)N[C@@H](CC(N)=O)C(=O)N[C@@H](CO)C(N)=O)[C@@H](C)CC)C(C)C [Magainin-Dab] (H-GIG[Dab]FLHSA[Dab][Dab]FG[Dab]AFVGEIMNS-NH2; N-terminus assumed),11.0 ± 1.0 µM,5.5 ± 0.5 µM,178 ± 39.4 µM,32.4 : 1
CC[C@H](C)[C@H](NC(=O)CN)C(=O)NCC(=O)N[C@@H](CN)C(=O)N[C@@H](Cc1ccccc1)C(=O)N[C@@H](CC(C)C)C(=O)N[C@@H](Cc1c[nH]cn1)C(=O)N[C@@H](CO)C(=O)N[C@@H](C)C(=O)N[C@@H](CN)C(=O)N[C@@H](CN)C(=O)N[C@@H](Cc1ccccc1)C(=O)NCC(=O)N[C@@H](CN)C(=O)N[C@@H](C)C(=O)N[C@@H](Cc1ccccc1)C(=O)N[C@H](C(=O)NCC(=O)N[C@@H](CCC(=O)O)C(=O)N[C@H](C(=O)N[C@@H](CCSC)C(=O)N[C@@H](CC(N)=O)C(=O)N[C@@H](CO)C(N)=O)[C@@H](C)CC)C(C)C [Magainin-Dap] (H-GIG[Dap]FLHSA[Dap][Dap]FG[Dap]AFVGEIMNS-NH2; N-terminus assumed),29.8±6.9^c μM,14.9 ± 3.5 µM,285 ± 19.4 µM,19.1 : 1
GIGKFLHSAKKFGKAFVGEIMNS-NH2 [Magainin II],,,95.2 ± 32.2 µM,20.2 : 1
GIGRFLHSARRFGRAFVGEIMNS-NH2 [Magainin-Arg],4.9±0.2^c μM,2.5 ± 0.1 µM,64.5 ± 3 µM,25.8 : 1
"GIGXFLHSAXXFGXAFVGEIMNS-CONH2 [Magainin-Orn, magainin II analogue, all lysine residues substituted with ornithine]",11.4 ± 0.3 µM,5.7 ± 0.2 µM,168 ± 42.1 µM,29.4 : 1
